According to patent US20200223889A1, “Bicyclic Compounds Capable of Binding to Melanocortin 4 Receptor” (Novo Nordisk A/S, priority 2017, published 2020):
Positions of bridges follow the written chain, without caps; N, C: chain ends. Non-standard residues stand in square brackets, D forms with d. Residues, ends and D or L forms follow the SMILES beside them. Thz = O=C(O)[C@@H]1CSCN1

Assay: In vivo obese model: DIO mice treated once daily, food intake and body weight
Description: Stimulation of MC4R signaling is reported to modulate energy intake and expenditure in both humans and rodents. In order to test the effect of MC4R agonists on food intake and body weight, diet-induced obese (DIO) mice were treated once daily with compounds to assess weight loss efficacy.
All animal protocols were approved by an Institutional Animal Care and Use Committee and Ethical Review Committee of Novo Nordisk. Animals were housed according to Novo Nordisk rodent housing standards, and were given ad libitum access to food and water under controlled lighting (12 h:12 h light/dark cycle; lights off 17:00-05:00), temperature (23±2° C.) and relative humidity (50±20%) conditions. Diet-induced obese (DIO) male C57BL/6J mice maintained on a high fat diet (60% kcal fat, 5.24 kcal/gram; RD12492, Research Diets, New Brunswick, N.J., USA) for 22 weeks were obtained from Charles River (France). Upon arrival, the mice were single-housed (one mouse per cage) and allowed to acclimate to their new environment for two weeks prior to the start of treatment.
Prior to initiation of the study, animals were single-housed and acclimated to handling for 7 days. The DIO mice were distributed into groups (n=8/group) such that statistical variations in the mean and standard deviations of fat mass and body weight were minimized between groups. Animals were dosed once daily, subcutaneously at 16:00 with either vehicle or compound
Body weight and food intake were measured immediately prior to dosing each day. The average starting body weight of the mice prior to start of treatment was 47.2±0.2 grams.

[1] = 0.3 μmol/kg once daily s.c., day 1, mean ± SEM
[2] = 0.3 μmol/kg once daily s.c., day 2, mean ± SEM
[3] = 0.3 μmol/kg once daily s.c., day 3, mean ± SEM
[4] = 0.3 μmol/kg once daily s.c., day 4, mean ± SEM
[5] = 0.3 μmol/kg once daily s.c., day 5, mean ± SEM
[6] = 0.3 μmol/kg once daily s.c., day 6, mean ± SEM
[7] = 0.3 μmol/kg once daily s.c., day 7, mean ± SEM
[8] = 0.3 μmol/kg once daily s.c., day 8, mean ± SEM
[9] = 0.3 μmol/kg once daily s.c., day 9, mean ± SEM
[10] = 0.3 μmol/kg once daily s.c., day 10, mean ± SEM
[11] = 0.3 μmol/kg once daily s.c., day 11, mean ± SEM
[12] = 0.3 μmol/kg once daily s.c., day 12, mean ± SEM
[13] = 0.3 μmol/kg once daily s.c., day 13, mean ± SEM
[14] = 0.3 μmol/kg once daily s.c., day 14, mean ± SEM
[15] = 0.3 μmol/kg once daily s.c., day 15, mean ± SEM
[16] = 0.3 μmol/kg once daily s.c., day 16, mean ± SEM
[17] = 0.3 μmol/kg once daily s.c., day 17, mean ± SEM
[18] = 0.3 μmol/kg once daily s.c., day 18, mean ± SEM
[19] = 0.3 μmol/kg once daily s.c., day 19, mean ± SEM
[20] = 0.3 μmol/kg once daily s.c., day 20, mean ± SEM
[21] = 1.5 μmol/kg once daily s.c., day 1, mean ± SEM
[22] = 1.5 μmol/kg once daily s.c., day 2, mean ± SEM
[23] = 1.5 μmol/kg once daily s.c., day 3, mean ± SEM
[24] = 1.5 μmol/kg once daily s.c., day 4, mean ± SEM
[25] = 1.5 μmol/kg once daily s.c., day 5, mean ± SEM
[26] = 1.5 μmol/kg once daily s.c., day 6, mean ± SEM
[27] = 1.5 μmol/kg once daily s.c., day 7, mean ± SEM
[28] = 1.5 μmol/kg once daily s.c., day 8, mean ± SEM
[29] = 1.5 μmol/kg once daily s.c., day 9, mean ± SEM
[30] = 1.5 μmol/kg once daily s.c., day 10, mean ± SEM
[31] = 1.5 μmol/kg once daily s.c., day 11, mean ± SEM
[32] = 1.5 μmol/kg once daily s.c., day 12, mean ± SEM
[33] = 1.5 μmol/kg once daily s.c., day 13, mean ± SEM
[34] = 1.5 μmol/kg once daily s.c., day 14, mean ± SEM
[35] = 1.5 μmol/kg once daily s.c., day 15, mean ± SEM
[36] = 1.5 μmol/kg once daily s.c., day 16, mean ± SEM
[37] = 1.5 μmol/kg once daily s.c., day 17, mean ± SEM
[38] = 1.5 μmol/kg once daily s.c., day 18, mean ± SEM
[39] = 1.5 μmol/kg once daily s.c., day 19, mean ± SEM
[40] = 1.5 μmol/kg once daily s.c., day 20, mean ± SEM

## C[C@@H]1NC(=O)[C@H](CCCCN)NC(=O)[C@@H]2CSSC[C@H](NC(=O)[C@H](Cc3c[nH]c4ccccc34)NC(=O)[C@H](C)NC(=O)[C@@H](CCCCN)NC1=O)C(=O)N1CSC[C@H]1C(=O)N[C@@H](Cc1c[nH]cn1)C(=O)N[C@H](Cc1ccccc1)C(=O)N[C@@H](Cc1c[nH]cn1)C(=O)N[C@@H](Cc1c[nH]c3ccccc13)C(=O)N2 [Chem. 114, c[c[Cys-THAZ-His-D-Phe-His-Trp- Cys]-Lys-Ala-D-Lys-Ala-Trp]] (cyclo(AWC[Thz]H[dF]HWCKA[dK]); disulfide 3-9)
0.3 μmol/kg once daily s.c., day 0, mean ± SEM
  Daily food intake, kcals: 13.4 ± 0.6 kcals
[1]
  Cumulative food intake, kcals: 7.7 ± 0.5 kcals
  Daily food intake, kcals: 7.7 ± 0.5 kcals
  Relative body weight, % initial: 96 ± 0.3 % initial
[2]
  Cumulative food intake, kcals: 13.6 ± 1.5 kcals
  Daily food intake, kcals: 6 ± 1.2 kcals
  Relative body weight, % initial: 94.2 ± 0.3 % initial
[3]
  Cumulative food intake, kcals: 23.5 ± 2.1 kcals
  Daily food intake, kcals: 9.9 ± 0.9 kcals
  Relative body weight, % initial: 93.6 ± 0.5 % initial
[4]
  Cumulative food intake, kcals: 34.3 ± 2.5 kcals
  Daily food intake, kcals: 10.7 ± 0.7 kcals
  Relative body weight, % initial: 91.8 ± 0.7 % initial
[5]
  Cumulative food intake, kcals: 44.8 ± 2.9 kcals
  Daily food intake, kcals: 10.5 ± 0.8 kcals
  Relative body weight, % initial: 91.1 ± 0.6 % initial
[6]
  Cumulative food intake, kcals: 55.6 ± 3.7 kcals
  Daily food intake, kcals: 10.8 ± 0.9 kcals
  Relative body weight, % initial: 89.9 ± 0.9 % initial
[7]
  Cumulative food intake, kcals: 67.7 ± 4.3 kcals
  Daily food intake, kcals: 12.1 ± 0.9 kcals
  Relative body weight, % initial: 89.5 ± 0.9 % initial
[8]
  Cumulative food intake, kcals: 78.8 ± 4.5 kcals
  Daily food intake, kcals: 11.1 ± 0.6 kcals
  Relative body weight, % initial: 88.6 ± 0.9 % initial
[9]
  Cumulative food intake, kcals: 90.8 ± 4.7 kcals
  Daily food intake, kcals: 12.1 ± 0.6 kcals
  Relative body weight, % initial: 88.6 ± 0.9 % initial
[10]
  Cumulative food intake, kcals: 103.2 ± 5.3 kcals
  Daily food intake, kcals: 12.3 ± 0.8 kcals
  Relative body weight, % initial: 87.7 ± 1.1 % initial
[11]
  Cumulative food intake, kcals: 114.2 ± 5.8 kcals
  Daily food intake, kcals: 11 ± 0.7 kcals
  Relative body weight, % initial: 88.2 ± 1.1 % initial
[12]
  Cumulative food intake, kcals: 127.6 ± 6.1 kcals
  Daily food intake, kcals: 13.4 ± 0.6 kcals
  Relative body weight, % initial: 87.2 ± 1.1 % initial
[13]
  Cumulative food intake, kcals: 140.8 ± 6.4 kcals
  Daily food intake, kcals: 13.2 ± 0.7 kcals
  Relative body weight, % initial: 87.1 ± 1.2 % initial
[14]
  Cumulative food intake, kcals: 153.9 ± 6.9 kcals
  Daily food intake, kcals: 13.2 ± 0.7 kcals
  Relative body weight, % initial: 87.3 ± 1.3 % initial
[15]
  Cumulative food intake, kcals: 167.5 ± 7.5 kcals
  Daily food intake, kcals: 13.6 ± 0.7 kcals
  Relative body weight, % initial: 87.4 ± 1.3 % initial
[16]
  Cumulative food intake, kcals: 181.2 ± 7.8 kcals
  Daily food intake, kcals: 13.7 ± 0.5 kcals
  Relative body weight, % initial: 87.5 ± 1.3 % initial
[17]
  Cumulative food intake, kcals: 195.8 ± 7.9 kcals
  Daily food intake, kcals: 14.5 ± 0.5 kcals
  Relative body weight, % initial: 87.4 ± 1.3 % initial
[18]
  Cumulative food intake, kcals: 211 ± 8.3 kcals
  Daily food intake, kcals: 15.3 ± 0.6 kcals
  Relative body weight, % initial: 87.9 ± 1.4 % initial
[19]
  Cumulative food intake, kcals: 225.4 ± 8.7 kcals
  Daily food intake, kcals: 14.3 ± 0.8 kcals
  Relative body weight, % initial: 88.6 ± 1.4 % initial
[20]
  Cumulative food intake, kcals: 241.2 ± 8.5 kcals
  Daily food intake, kcals: 15.9 ± 0.5 kcals
  Relative body weight, % initial: 88.9 ± 1.3 % initial
0.3 μmol/kg once daily subcutaneously
  reduction in body weight, relative to initial body weight: 11.1±1.3%
1.5 μmol/kg once daily s.c., day 0, mean ± SEM
  Daily food intake, kcals: 13.9 ± 1.3 kcals
[21]
  Cumulative food intake, kcals: 5.5 ± 0.8 kcals
  Daily food intake, kcals: 5.5 ± 0.8 kcals
  Relative body weight, % initial: 95.1 ± 0.4 % initial
[22]
  Cumulative food intake, kcals: 10.7 ± 1.4 kcals
  Daily food intake, kcals: 5.2 ± 0.8 kcals
  Relative body weight, % initial: 93 ± 0.4 % initial
[23]
  Cumulative food intake, kcals: 19.8 ± 2.2 kcals
  Daily food intake, kcals: 9.1 ± 0.8 kcals
  Relative body weight, % initial: 92.1 ± 0.6 % initial
[24]
  Cumulative food intake, kcals: 30.5 ± 3.1 kcals
  Daily food intake, kcals: 10.7 ± 1.2 kcals
  Relative body weight, % initial: 91.3 ± 0.7 % initial
[25]
  Cumulative food intake, kcals: 41.1 ± 4 kcals
  Daily food intake, kcals: 10.7 ± 0.9 kcals
  Relative body weight, % initial: 90.6 ± 0.9 % initial
[26]
  Cumulative food intake, kcals: 51.7 ± 4.6 kcals
  Daily food intake, kcals: 10.6 ± 0.8 kcals
  Relative body weight, % initial: 89.6 ± 0.8 % initial
[27]
  Cumulative food intake, kcals: 61.9 ± 5.4 kcals
  Daily food intake, kcals: 10.2 ± 1 kcals
  Relative body weight, % initial: 88.6 ± 0.9 % initial
[28]
  Cumulative food intake, kcals: 73.8 ± 5.8 kcals
  Daily food intake, kcals: 11.9 ± 0.7 kcals
  Relative body weight, % initial: 87.8 ± 0.8 % initial
[29]
  Cumulative food intake, kcals: 86.2 ± 6.4 kcals
  Daily food intake, kcals: 12.4 ± 0.8 kcals
  Relative body weight, % initial: 87.8 ± 1 % initial
[30]
  Cumulative food intake, kcals: 97.5 ± 7.5 kcals
  Daily food intake, kcals: 11.3 ± 1.2 kcals
  Relative body weight, % initial: 87.1 ± 0.9 % initial
[31]
  Cumulative food intake, kcals: 110.4 ± 8.4 kcals
  Daily food intake, kcals: 12.8 ± 1.4 kcals
  Relative body weight, % initial: 86.9 ± 0.9 % initial
[32]
  Cumulative food intake, kcals: 123.3 ± 9.2 kcals
  Daily food intake, kcals: 12.9 ± 0.9 kcals
  Relative body weight, % initial: 86.6 ± 1.1 % initial
[33]
  Cumulative food intake, kcals: 136.4 ± 9.8 kcals
  Daily food intake, kcals: 13.2 ± 0.7 kcals
  Relative body weight, % initial: 86.7 ± 1.3 % initial
[34]
  Cumulative food intake, kcals: 149.3 ± 10.7 kcals
  Daily food intake, kcals: 12.9 ± 1.1 kcals
  Relative body weight, % initial: 86.7 ± 1.3 % initial
[35]
  Cumulative food intake, kcals: 162.8 ± 11.1 kcals
  Daily food intake, kcals: 13.5 ± 0.6 kcals
  Relative body weight, % initial: 86 ± 1.2 % initial
[36]
  Cumulative food intake, kcals: 175.1 ± 11.7 kcals
  Daily food intake, kcals: 12.2 ± 0.7 kcals
  Relative body weight, % initial: 86 ± 1.3 % initial
[37]
  Cumulative food intake, kcals: 188.7 ± 12.2 kcals
  Daily food intake, kcals: 13.6 ± 0.8 kcals
  Relative body weight, % initial: 85.7 ± 1.2 % initial
[38]
  Cumulative food intake, kcals: 202.5 ± 13.1 kcals
  Daily food intake, kcals: 13.8 ± 1 kcals
  Relative body weight, % initial: 85.9 ± 1.2 % initial
[39]
  Cumulative food intake, kcals: 217 ± 13.9 kcals
  Daily food intake, kcals: 14.5 ± 0.9 kcals
  Relative body weight, % initial: 86.4 ± 1.3 % initial
[40]
  Cumulative food intake, kcals: 231.8 ± 13.6 kcals
  Daily food intake, kcals: 14.8 ± 0.8 kcals
  Relative body weight, % initial: 86.8 ± 1.3 % initial
1.5 μmol/kg once daily subcutaneously
  reduction in body weight, relative to initial body weight: 13.2±1.3%
Once daily subcutaneous treatment
  food intake (in words): transient reduction in food intake that returned to baseline levels during the second week of treatment
